pIC50: −log10 of the molar value. The source made the active and inactive calls. How the calls were made is not given here.
Molecular target: Cathepsin S (Homo sapiens) (UniProt P25774)
Test: IC50 of CTSS protease blockers – biochemical, confirmation, dose response (AID 831)
Conditions: purified cathepsin S enzyme activity, fluorescence

Sequence of Cathepsin S (Homo sapiens) (P25774 115-331 limits assumed): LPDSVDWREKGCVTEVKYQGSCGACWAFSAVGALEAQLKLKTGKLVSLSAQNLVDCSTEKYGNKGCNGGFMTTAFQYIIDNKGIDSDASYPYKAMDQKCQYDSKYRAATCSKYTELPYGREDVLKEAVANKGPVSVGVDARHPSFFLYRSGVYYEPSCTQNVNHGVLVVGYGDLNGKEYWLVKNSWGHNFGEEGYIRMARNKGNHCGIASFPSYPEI

| Structure (SMILES) | IC50 | pIC50 |
| --- | --- | --- |
| N#CC1=C(N)Oc2c(sc3ccccc23)C1c1ccco1 (centres undefined) | > 50 µM (inactive) |  |
| CCN1CC=C2C(C#N)=C(N)C(C#N)(C#N)C(CCc3ccccc3)C2C1 (centres undefined) |  | 5.18 |
| CC1=C(C(=O)Nc2ccc(F)cc2)C(c2cccc(C)c2)n2nc(CCCO)nc2N1 (centres undefined) | > 50 µM (inactive) |  |
| CC(=O)c1c(O)n(C)c(=S)n(-c2ccccc2)c1=O | > 50 µM (inactive) |  |
